Consider three molecules from PubChem BioAssay (NCI).

Test systems include OVCAR-5 ovarian; UO-31 renal; SF-539 CNS; NCI-H522 lung; SR leukemia; SNB-19 CNS; NCI-H23 lung; SW-620 colon; SK-MEL-5 melanoma; SNB-75 CNS.
Holding throughout (experiment): inhibition of tumour cell growth, NCI panel, 48 h

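Exposure lasted 48 hours, with cells grown in 96-well plates and compounds tested at five concentrations. At the TGI there is no net growth.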

For the molecule `COc1ccc(-c2csc(=Nc3ccccc3)n2CC(O)c2ccc([N+](=O)[O-])cc2)cc1` (stereo not given), the TGI in the assay on OVCAR-5 ovarian, in the assay with UO-31 renal, in the assay on SF-539 CNS, in the assay with NCI-H522 lung, in the assay on SR leukemia and with SNB-19 CNS was over 100 µM each time. For the same molecule, the TGI in the assay with NCI-H23 lung, in the assay on SW-620 colon, with SK-MEL-5 melanoma and in the assay with SNB-75 CNS was over 100 µM each time.
With `CC(=O)O/N=C/c1ncccc1OC(C)=O`, the TGI in the assay with OVCAR-5 ovarian, in the assay with UO-31 renal, in the assay on SF-539 CNS, with NCI-H522 lung, in the assay with SR leukemia and in the assay on SNB-19 CNS was over 100 µM in each case. Also, the TGI in the assay with NCI-H23 lung, with SW-620 colon, with SK-MEL-5 melanoma and with SNB-75 CNS was over 100 µM in each case.
For `Nc1nc(SCCNC(=O)CCc2ccc(O)cc2)nc2c1ncn2C1OC(CO)C(O)C1O` (stereo not given), the TGI in the assay with OVCAR-5 ovarian, in the assay with UO-31 renal, with SF-539 CNS, in the assay with NCI-H522 lung, with SR leukemia and with SNB-19 CNS was over 203 µM in each case. For the same molecule, the TGI in the assay on NCI-H23 lung, in the assay on SW-620 colon, in the assay on SK-MEL-5 melanoma and in the assay with SNB-75 CNS was over 203 µM throughout.
